According to patent US20200308619A1, “GENE CONSTRUCT AND BIOSENSOR FOR THE RAPID DETECTION OF AHL MOLECULES AND THE PATHOGENIC BACTERIA THAT PRODUCE SAME” (UNIVERSIDAD DE VALPARAISO, priority 2017, published 2020):

System: E. coli pUCPAO1RHL biosensor strain
Experiment: Biosensor fluorescence emission (GFP) in response to AHL extract and copper
Assay type: cell-based, Escherichia coli
Conditions: copper by itself, no AHL
Experimental: The biosensing strain named E. coli pUCPAO1RHL that contains the gene construct of the invention, was used to evaluate its response to the presence of AHLs and the presence of copper. For the evaluation, AHLs were obtained from the bacterium Pseudomonas aeruginosa from a 12-hour bacterial culture in late exponential phase. For this, the supernatant was separated from the bacterial cells by centrifugation at 8,000 rpm for 15 minutes. An organic extraction with dichloromethane (DCM) from the supernatant was performed in a ratio of 70:30 (Supernatant: DCM). For this, 200 ml of supernatant and 85 ml of DCM were incorporated into a […] volume decantation flask. It was stirred vigorously, then left to settle at room temperature for 1 hour. […]
The biosensor strain (180 μL) was grown in the presence of 10 μL of AHL extract (obtained from the stationary phase of growth of P. aeruginosa) and in the presence of 500 μM of copper (such as CuSO4) in Luria Bertani liquid medium at 37° C. stirred in 96-well plates on a temperature controlled orbital shaker spectrofluorometer equipment (Tecan USA). During growth, turbidity was recorded at an absorbance of 600 nm and fluorescence at […] every 15 minutes, equivalent to one cycle of fluorescence emission measurement. […]

For O=S(=O)([O-])[O-].[Cu+2] [copper, CuSO4], the “inducing effect on fluorescence” value was “did not show an obvious inducing effect of fluorescence”.
